In publication PMC3726261 (Cancer, 2012):
Entries after “also recorded” stand apart in the source; their conditions may differ. Marks after values point to notes of the source that are not given here.

Legend:
[1] = tested on: patients with advanced solid malignancies; assay: Phase 1 dose-escalation study: safety, treatment-emergent adverse events; format: in vivo; conditions: for Abdominal distension (related TEAE) / Anemia (related TEAE) / Anorexia (related TEAE) / At least 1 related TEAE / Chest discomfort (related TEAE) / Constipation (related TEAE) / Cough (related TEAE) / Dyspepsia (related TEAE) / Dyspnea (related TEAE) / Edema (related TEAE) / Face edema (related TEAE) / Fatigue (related TEAE) / Fluid retention (related TEAE) / Increased appetite (related TEAE) / Insomnia (related TEAE) / Muscle spasms (related TEAE) / Myalgia (related TEAE) / Nausea (related TEAE) / Peripheral edema (related TEAE) / Pleural effusion (related TEAE) / Rash (related TEAE) / Vomiting (related TEAE) / Weight increase (related TEAE): N = 31 patients
PPAR response element = conditions: cited from earlier work
[2] = Grade 3 (dose-limiting toxicity)
[3] = Patient 20, 0.75 mg twice daily, by cycle 3, day 1, CTCAE grade 4
[4] = PPAR response element activation

SMILES: Cc1cc(Oc2ccc3nc(COc4ccc(CC5SC(=O)NC5=O)cc4)n(C)c3c2)cc(C)c1N (stereo not shown) [Efatutazone]
- Dose-limiting toxicities ([1]; 0.10-, 0.25-, and 1.15-mg cohorts, not dose dependent): Three episodes of dose-limiting toxicities; also recorded: Three DLTs related to fluid retention
- Patients with at least 1 treatment-related AE ([1]; 31 patients): 100%
- Grade ≥4 edema ([1]; 31 treated patients): No patient
- Abdominal distension (related TEAE) ([1]; Grade 1): 1 (3.2) No. (%)
- Anemia (related TEAE) ([1]; Grade 1): 5 (16.1) No. (%)
- Anorexia (related TEAE) ([1]; Grade 1): 3 (9.7) No. (%)
- At least 1 related TEAE ([1]; Grade 1): 13 (41.9) No. (%)
- Chest discomfort (related TEAE) ([1]; Grade 1): 1 (3.2) No. (%)
- Constipation (related TEAE) ([1]; Grade 1): 2 (6.5) No. (%)
- Cough (related TEAE) ([1]; Grade 1): 3 (9.7) No. (%)
- Dyspepsia (related TEAE) ([1]; Grade 1): 2 (6.5) No. (%)
- Dyspnea (related TEAE) ([1]; Grade 1): 4 (12.9) No. (%)
- Edema (related TEAE) ([1]; Grade 1): 1 (3.2) No. (%)
- Face edema (related TEAE) ([1]; Grade 1): 2 (6.5) No. (%)
- Fatigue (related TEAE) ([1]; Grade 1): 10 (32.3) No. (%)
- Fluid retention (related TEAE) ([1]; Grade 1): 2 (6.5) No. (%)
- Increased appetite (related TEAE) ([1]; Grade 1): 3 (9.7) No. (%)
- Insomnia (related TEAE) ([1]; Grade 1): 1 (3.2) No. (%)
- Muscle spasms (related TEAE) ([1]; Grade 1): 1 (3.2) No. (%)
- Myalgia (related TEAE) ([1]; Grade 1): 2 (6.5) No. (%)
- Nausea (related TEAE) ([1]; Grade 1): 5 (16.1) No. (%)
- Peripheral edema (related TEAE) ([1]; Grade 1): 8 (25.8) No. (%)
- Pleural effusion (related TEAE) ([1]; Grade 1): 1 (3.2) No. (%)
- Rash (related TEAE) ([1]; Grade 1): 2 (6.5) No. (%)
- Vomiting (related TEAE) ([1]; Grade 1): 2 (6.5) No. (%)
- Weight increase (related TEAE) ([1]; Grade 1): 17 (54.8) No. (%)
- Abdominal distension (related TEAE) ([1]; Grade 2): 1 (3.2) No. (%)
- Anemia (related TEAE) ([1]; Grade 2): 3 (9.7) No. (%)
- Anorexia (related TEAE) ([1]; Grade 2): 0 No. (%)
- At least 1 related TEAE ([1]; Grade 2): 11 (35.5) No. (%)
- Chest discomfort (related TEAE) ([1]; Grade 2): 0 No. (%)
- Constipation (related TEAE) ([1]; Grade 2): 0 No. (%)
- Cough (related TEAE) ([1]; Grade 2): 1 (3.2) No. (%)
- Dyspepsia (related TEAE) ([1]; Grade 2): 0 No. (%)
- Dyspnea (related TEAE) ([1]; Grade 2): 0 No. (%)
- Edema (related TEAE) ([1]; Grade 2): 0 No. (%)
- Face edema (related TEAE) ([1]; Grade 2): 0 No. (%)
- Fatigue (related TEAE) ([1]; Grade 2): 2 (6.5) No. (%)
- Fluid retention (related TEAE) ([1]; Grade 2): 1 (3.2) No. (%)
- Increased appetite (related TEAE) ([1]; Grade 2): 0 No. (%)
- Insomnia (related TEAE) ([1]; Grade 2): 1 (3.2) No. (%)
- Muscle spasms (related TEAE) ([1]; Grade 2): 1 (3.2) No. (%)
- Myalgia (related TEAE) ([1]; Grade 2): 0 No. (%)
- Nausea (related TEAE) ([1]; Grade 2): 1 (3.2) No. (%)
- Peripheral edema (related TEAE) ([1]; Grade 2): 7 (22.6) No. (%)
- Pleural effusion (related TEAE) ([1]; Grade 2): 1 (3.2) No. (%)
- Rash (related TEAE) ([1]; Grade 2): 0 No. (%)
- Vomiting (related TEAE) ([1]; Grade 2): 1 (3.2) No. (%)
- Weight increase (related TEAE) ([1]; Grade 2): 0 No. (%)
- Edema (related TEAE) [1, 2]: 2 (6.5) ^b No. (%)
- Pleural effusion (related TEAE) [1, 2]: 1 (3.2) ^b No. (%)
- Abdominal distension (related TEAE) ([1]; Grade 3): 0 No. (%)
- Anemia (related TEAE) ([1]; Grade 3): 4 (12.9) No. (%)
- Anorexia (related TEAE) ([1]; Grade 3): 0 No. (%)
- At least 1 related TEAE ([1]; Grade 3): 6 (19.4) No. (%)
- Chest discomfort (related TEAE) ([1]; Grade 3): 1 (3.2) No. (%)
- Constipation (related TEAE) ([1]; Grade 3): 0 No. (%)
- Cough (related TEAE) ([1]; Grade 3): 0 No. (%)
- Dyspepsia (related TEAE) ([1]; Grade 3): 0 No. (%)
- Dyspnea (related TEAE) ([1]; Grade 3): 1 (3.2) No. (%)
- Face edema (related TEAE) ([1]; Grade 3): 0 No. (%)
- Fatigue (related TEAE) ([1]; Grade 3): 2 (6.5) No. (%)
- Fluid retention (related TEAE) ([1]; Grade 3): 0 No. (%)
- Increased appetite (related TEAE) ([1]; Grade 3): 0 No. (%)
- Insomnia (related TEAE) ([1]; Grade 3): 0 No. (%)
- Muscle spasms (related TEAE) ([1]; Grade 3): 0 No. (%)
- Myalgia (related TEAE) ([1]; Grade 3): 0 No. (%)
- Nausea (related TEAE) ([1]; Grade 3): 0 No. (%)
- Peripheral edema (related TEAE) ([1]; Grade 3): 1 (3.2) No. (%)
- Rash (related TEAE) ([1]; Grade 3): 0 No. (%)
- Vomiting (related TEAE) ([1]; Grade 3): 0 No. (%)
- Weight increase (related TEAE) ([1]; Grade 3): 0 No. (%)
- Abdominal distension (related TEAE) ([1]; Grade 4): 0 No. (%)
- Anemia (related TEAE) ([1]; Grade 4): 0 No. (%)
- Anorexia (related TEAE) ([1]; Grade 4): 0 No. (%)
- At least 1 related TEAE ([1]; Grade 4): 1 (3.2) ^a No. (%)
- Chest discomfort (related TEAE) ([1]; Grade 4): 0 No. (%)
- Constipation (related TEAE) ([1]; Grade 4): 0 No. (%)
- Cough (related TEAE) ([1]; Grade 4): 0 No. (%)
- Dyspepsia (related TEAE) ([1]; Grade 4): 0 No. (%)
- Dyspnea (related TEAE) ([1]; Grade 4): 0 No. (%)
- Edema (related TEAE) ([1]; Grade 4): 0 No. (%)
- Face edema (related TEAE) ([1]; Grade 4): 0 No. (%)
- Fatigue (related TEAE) ([1]; Grade 4): 0 No. (%)
- Fluid retention (related TEAE) ([1]; Grade 4): 0 No. (%)
- Increased appetite (related TEAE) ([1]; Grade 4): 0 No. (%)
- Insomnia (related TEAE) ([1]; Grade 4): 0 No. (%)
- Muscle spasms (related TEAE) ([1]; Grade 4): 0 No. (%)
- Myalgia (related TEAE) ([1]; Grade 4): 0 No. (%)
- Nausea (related TEAE) ([1]; Grade 4): 0 No. (%)
- Peripheral edema (related TEAE) ([1]; Grade 4): 0 No. (%)
- Pleural effusion (related TEAE) ([1]; Grade 4): 0 No. (%)
- Rash (related TEAE) ([1]; Grade 4): 0 No. (%)
- Vomiting (related TEAE) ([1]; Grade 4): 0 No. (%)
- Weight increase (related TEAE) ([1]; Grade 4): 0 No. (%)
- Abdominal distension (related TEAE) ([1]; Overall): 2 (6.5) No. (%)
- Anemia (related TEAE) ([1]; Overall): 12 (38.7) No. (%)
- Anorexia (related TEAE) ([1]; Overall): 3 (9.7) No. (%)
- At least 1 related TEAE ([1]; Overall): 31 (100) No. (%)
- Chest discomfort (related TEAE) ([1]; Overall): 2 (6.5) No. (%)
- Constipation (related TEAE) ([1]; Overall): 2 (6.5) No. (%)
- Cough (related TEAE) ([1]; Overall): 4 (12.9) No. (%)
- Dyspepsia (related TEAE) ([1]; Overall): 2 (6.5) No. (%)
- Dyspnea (related TEAE) ([1]; Overall): 5 (16.1) No. (%)
- Edema (related TEAE) ([1]; Overall): 3 (9.7) No. (%)
- Face edema (related TEAE) ([1]; Overall): 2 (6.5) No. (%)
- Fatigue (related TEAE) ([1]; Overall): 14 (45.2) No. (%)
- Fluid retention (related TEAE) ([1]; Overall): 3 (9.7) No. (%)
- Increased appetite (related TEAE) ([1]; Overall): 3 (9.7) No. (%)
- Insomnia (related TEAE) ([1]; Overall): 2 (6.5) No. (%)
- Muscle spasms (related TEAE) ([1]; Overall): 2 (6.5) No. (%)
- Myalgia (related TEAE) ([1]; Overall): 2 (6.5) No. (%)
- Nausea (related TEAE) ([1]; Overall): 6 (19.4) No. (%)
- Peripheral edema (related TEAE) ([1]; Overall): 16 (51.6) No. (%)
- Pleural effusion (related TEAE) ([1]; Overall): 3 (9.7) No. (%)
- Rash (related TEAE) ([1]; Overall): 2 (6.5) No. (%)
- Vomiting (related TEAE) ([1]; Overall): 3 (9.7) No. (%)
- Weight increase (related TEAE) ([1]; Overall): 17 (54.8) No. (%)
- Serum cholesterol, peak [1, 3]: 515 mg/dL
- Serum triglycerides, peak [1, 3]: 4525 mg/dL
- Cardiac dysfunction (serial electrocardiograms and echocardiograms) ([1]; all dose levels): did not reveal any evidence of cardiac dysfunction; also recorded: no measurable cardiotoxicity
- Patients with anemia (treatment-related AE) ([1]; all dose levels): 38.7%
- Patients with fatigue (treatment-related AE) ([1]; all dose levels): 45.2%
- Patients with peripheral edema ([1]; all dose levels): 51.6%
- Patients with weight increase (treatment-related AE) ([1]; all dose levels): 54.8%
- Maximum tolerated dose (MTD) ([1]; doses 0.10 to 1.15 mg PO twice daily): not reached
- Patients with grade 4 TEAEs ([1]; regardless of attribution (bronchospasm; hypercholesterolemia and hypertriglyceridemia)): Two patients
- Potency relative to rosiglitazone (PPAR response element; [4]): at least 50 ×
- Potency relative to troglitazone (PPAR response element; [4]): ≥ 500 ×
- PPAR subtype selectivity of transcription activation (PPAR response element; background statement, no reference given): selectively activates PPARγ-mediated transcription with little effect on other PPAR subtypes
